Assay results published in patent US20250154134A1, “COMPOUND AS FAK INHIBITOR AND USE THEREOF” (WIGEN BIOMEDICINE TECHNOLOGY (SHANGHAI) CO., LTD., priority 2022, published 2025).

Key:
[1] = system: Human pancreatic cancer Mia PaCa-2 cells; assay: In vivo efficacy, Mia PaCa-2 xenograft in nude mice; design: species or system mouse; conditions: MiaPaCa-2 model, 25 mg/kg PO QD 21 days
Description: (§1) The groups were as follows: 1) a solvent control group, 8 mice; and 2) a control compound group and a test compound group, 8 mice each. The mice in the solvent control group were intragastrically administered 0.5% CMC-Na twice a day; the mice in the compound groups were intragastrically administered 0.50% MC-Tween-80 suspension once a day. On Tuesday and Thursday each week, tumor volumes and body weight of the mice were measured, and the nude mice were sacrificed on day 21 after the administration. […] The toxicity of the compounds was evaluated according to the body weight of the mice.

[2] = system: phosphorylation at the FAK 397 site; assay: Inhibition of Y397 phosphorylation in PC3 cells (ELISA); type: cell-based; conditions: Homo sapiens, PC-3, 3 h treatment, read-out: IC50 against Y397 phosphorylation
Description: PC3 cells were seeded at 8000 cells/well. […] The inhibition percentage and IC50 of the compound were calculated compared to the DMSO group.

[3] = In vivo pharmacokinetic experiment in CD-1 mice; conditions: mouse, plasma, CD-1 female mice; for Vd: read-out: Vdss
Description: […] The mice were fasted for at least 12 h before the administration and given food 4 h after the administration, and they were given ad libitum access to water during the experiment.
On the day of the experiment, animals in the intravenous group were given the corresponding compound by single injection via the tail vein at an administration volume of 10 mL/kg; and animals in the oral group were given the corresponding compound by single intragastric injection at an administration volume of 10 mL/kg. The animals were weighed before administration, and the administration volume was calculated according to the body weight. The sample collection time points were 0.083 h, 0.167 h, 0.5 h, 1 h, 2 h, 4 h, 8 h, and 24 h. About 200 μL of whole blood was collected through the orbital venous plexus at each time point and used to prepare plasma for concentration determination by high-performance liquid chromatography-tandem mass spectrometry (LC-MS/MS). The plasma concentrations were processed using a non-compartmental model of Winnolin pharmacokinetic software, and the pharmacokinetic parameters were calculated using a linear-log trapezoidal method.

PC3 cells [4] = assay: PC3 cell proliferation, 2D activity assay (Cell Titer-Lumi, 72 h); type: cell-based, human; conditions: Homo sapiens, PC-3, read-out: 2D inhibitory activity against PC3 cells IC50
PC3 cells [5] = assay: Inhibition of PC3 cell low adsorption (adherent cell count, 4 h); type: cell-based; conditions: Homo sapiens, PC-3; 4 h treatment; read-out: IC50 against PC3 cell low adsorption
Description: PC3 cells were seeded at 8000 cells/well. 4 h after the cells were treated with a compound, the number of adherent cells was counted. The inhibition percentage and IC50 of the compound were calculated compared to the DMSO group.

PC3 cells [6] = assay: PC3 cell proliferation, 3D activity assay (3D culture, 14 days); type: cell-based, human; conditions: Homo sapiens, PC-3, 336 h, read-out: 3D inhibitory activity against PC3 cells IC50
FAK recombinant protein = FAK recombinant protein (Homo sapiens (Human), UniProt Q05397); assay: Inhibitory activity against FAK enzyme (HTRF, TK substrate); type: biochemical
Description: A compound serially diluted with DMSO was mixed with a FAK recombinant protein. After the mixture was left to stand at room temperature for 10 min, a biotin-labeled TK substrate (TK) and ATP were added. […] The inhibition percentage and IC50 of the compound were calculated compared to the DMSO control group.

[7] = system: Human prostate cancer PC3 cells; assay: In vivo efficacy, PC3 xenograft in nude mice; design: species or system mouse; conditions: PC-3 model, 25 mg/kg, QD (21 days), PO
Description: as §1, with “0.5%” for “0.50%”

[8] = system: Mouse colon cancer MC38 cells; assay: In vivo efficacy, MC38 model in BALB/c mice, single drug and PD-1 combination; conditions: MC-38 model, single drug, 50 mg/kg, QD (21 days), PO
Description: Female BALB/c mice (aged 6 weeks, 18-22 g) were provided by Vital River Laboratory Animal Technology Co., Ltd. (China) and used one week after quarantine and acclimation. All animals were kept in a room at 23±2° C. with a relative humidity of 50±5%, artificial lighting was provided from 08:00 to 20:00 every day, and the air was exchanged 13-18 times per hour.
After being subcultured, the cells were collected when they reached the desired amount. The BALB/c mice were subcutaneously injected with 1×10^6 MC38 cells on the right side to form tumors. […] Administration was then started. Tumor volumes were measured with a caliper on day 3, day 7, day 10, day 14, day 17, and day 21 after the administration.
The toxicity of the compounds was evaluated according to the body weight and state of the mice.

Chain of FAK recombinant protein (Q05397 whole entry): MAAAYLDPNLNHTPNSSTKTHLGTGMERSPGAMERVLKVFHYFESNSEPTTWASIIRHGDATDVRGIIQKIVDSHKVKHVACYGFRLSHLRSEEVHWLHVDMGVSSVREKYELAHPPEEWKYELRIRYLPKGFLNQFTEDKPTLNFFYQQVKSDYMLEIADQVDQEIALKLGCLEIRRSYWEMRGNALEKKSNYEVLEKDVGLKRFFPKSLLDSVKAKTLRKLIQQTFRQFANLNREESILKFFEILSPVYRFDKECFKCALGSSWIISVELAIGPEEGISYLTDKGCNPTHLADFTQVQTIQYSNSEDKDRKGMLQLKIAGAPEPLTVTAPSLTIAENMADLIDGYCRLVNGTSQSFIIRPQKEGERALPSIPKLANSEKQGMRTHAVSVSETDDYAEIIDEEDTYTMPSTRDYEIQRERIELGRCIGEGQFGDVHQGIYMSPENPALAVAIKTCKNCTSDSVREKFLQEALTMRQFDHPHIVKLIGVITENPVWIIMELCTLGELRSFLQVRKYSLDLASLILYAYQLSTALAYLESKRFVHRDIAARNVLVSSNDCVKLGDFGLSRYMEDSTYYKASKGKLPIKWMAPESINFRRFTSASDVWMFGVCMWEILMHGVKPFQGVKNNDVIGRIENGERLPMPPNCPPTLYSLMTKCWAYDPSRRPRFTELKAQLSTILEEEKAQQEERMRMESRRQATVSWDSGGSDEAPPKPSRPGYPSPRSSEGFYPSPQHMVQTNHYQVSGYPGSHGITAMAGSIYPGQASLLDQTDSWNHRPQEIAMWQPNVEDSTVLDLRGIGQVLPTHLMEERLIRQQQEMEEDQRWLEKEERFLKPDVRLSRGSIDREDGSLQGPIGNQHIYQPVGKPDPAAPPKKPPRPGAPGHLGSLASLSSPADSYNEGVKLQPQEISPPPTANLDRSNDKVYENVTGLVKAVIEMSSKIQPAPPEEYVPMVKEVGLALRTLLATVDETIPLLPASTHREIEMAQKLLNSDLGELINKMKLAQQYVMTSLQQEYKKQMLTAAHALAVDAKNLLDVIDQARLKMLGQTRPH

COc1cc(C(=O)NC2CCN(C)CC2)c(F)cc1Nc1ncc(C(F)(F)F)c(Oc2cccc3c2C(=O)N(C)C32CC2)n1 [Compound 4]
TGI(%) [1]: 69.02%
IC50 [2]: 0.025 nM
AUC(0-t) ([3]; iv, injection (1 mg/kg)): 489 ng·h/mL
clearance ([3]; iv, injection (1 mg/kg)): 34 mL/min/kg
half-life ([3]; iv, injection (1 mg/kg)): 1.78 h
Vd ([3]; iv, injection (1 mg/kg)): 4.35 L/kg
AUC(0-t) ([3]; oral administration (10 mg/kg)): 2090 ng·h/mL
Cmax ([3]; oral administration (10 mg/kg)): 361 ng/mL
Tmax ([3]; oral administration (10 mg/kg)): 4 h
bioavailability ([3]; oral administration (10 mg/kg)): 42.6%
IC50 (PC3 cells [4]): > 2000 nM
IC50 (PC3 cells [5]): 6.87 nM
IC50 (PC3 cells [6]): 2.01 nM
IC50 (FAK recombinant protein): < 20 nM
TGI(%) [7]: 61.48%

COc1cc(N2CCN(C)CC2)ccc1Nc1ncc(C(F)(F)F)c(Oc2cccc3c2C(=O)N(C)C32CC2)n1 [Compound 73]
IC50 [2]: 0.028 nM
AUC(0-t) ([3]; iv, injection (1 mg/kg)): 414 ng·h/mL
clearance ([3]; iv, injection (1 mg/kg)): 40.2 mL/min/kg
half-life ([3]; iv, injection (1 mg/kg)): 1.93 h
Vd ([3]; iv, injection (1 mg/kg)): 5.67 L/kg
AUC(0-t) ([3]; oral administration (10 mg/kg)): 2890 ng·h/mL
Cmax ([3]; oral administration (10 mg/kg)): 624 ng/mL
Tmax ([3]; oral administration (10 mg/kg)): 0.5 h
bioavailability ([3]; oral administration (10 mg/kg)): 59.3%
half-life ([3]; oral administration (10 mg/kg)): 3.32 h
IC50 (PC3 cells [4]): > 10000 nM
IC50 (PC3 cells [5]): 5.01 nM
IC50 (PC3 cells [6]): 1.99 nM
IC50 (FAK recombinant protein): < 20 nM
TGI(%) [7]: 74.07%

COc1cc(N2CC3(CCN(C)CC3)C2)ccc1Nc1ncc(C(F)(F)F)c(Oc2cccc3c2C(=O)N(C)C32CC2)n1 [Compound 79]
TGI(%) [1]: 89.35%
AUC(0-t) ([3]; iv, injection (1 mg/kg)): 883 ng·h/mL
clearance ([3]; iv, injection (1 mg/kg)): 18.9 mL/min/kg
half-life ([3]; iv, injection (1 mg/kg)): 3.48 h
Vd ([3]; iv, injection (1 mg/kg)): 5.14 L/kg
AUC(0-t) ([3]; oral administration, 5 mg/kg): 1760 ng·h/mL
Cmax ([3]; oral administration, 5 mg/kg): 201 ng/mL
Tmax ([3]; oral administration, 5 mg/kg): 4 h
bioavailability ([3]; oral administration, 5 mg/kg): 40%
half-life ([3]; oral administration, 5 mg/kg): 3.06 h
IC50 (PC3 cells [4]): > 10000 nM
IC50 (PC3 cells [5]): 1.09 nM
IC50 (PC3 cells [6]): 0.32 nM
IC50 (FAK recombinant protein): < 20 nM
TGI(%) [7]: 88.33%
TGI(%) [8]: 69.21%

COc1cc(C(=O)NC2CCN(C)CC2)c(F)cc1Nc1ncc(Cl)c(Oc2cccc3c2C(=O)N(C)C32CC2)n1 [Compound 117]
TGI(%) [1]: 62.86%
IC50 [2]: 0.7 nM
AUC(0-t) ([3]; iv, injection (1 mg/kg)): 640 ng·h/mL
clearance ([3]; iv, injection (1 mg/kg)): 26.1 mL/min/kg
half-life ([3]; iv, injection (1 mg/kg)): 1.81 h
Vd ([3]; iv, injection (1 mg/kg)): 3.47 L/kg
AUC(0-t) ([3]; oral administration (10 mg/kg)): 7850 ng·h/mL
Cmax ([3]; oral administration (10 mg/kg)): 822 ng/mL
Tmax ([3]; oral administration (10 mg/kg)): 2 h
bioavailability ([3]; oral administration (10 mg/kg)): 123%
half-life ([3]; oral administration (10 mg/kg)): 2.22 h
IC50 (PC3 cells [4]): > 2000 nM
IC50 (PC3 cells [5]): 4.6 nM
IC50 (PC3 cells [6]): 5 to 50 nM
IC50 (FAK recombinant protein): < 20 nM

COc1cc(N2CC3(CCN(C)CC3)C2)c(F)cc1Nc1ncc(C(F)(F)F)c(Oc2cccc3c2C(=O)N(C)C32CC2)n1 [Compound 120, 4′-((2-((5-fluoro-2-methoxy-4-(7-methyl-2,7-diazaspiro[3.5]nonan-2-yl)phenyl)amino)-5-(trifluoromethyl)pyrimidin-4-yl)oxy)-2′-methylspiro[cyclopropane-1,1′-isoindolin]-3′-one]
IC50 [2]: < 0.01 nM
AUC(0-t) ([3]; iv, injection (1 mg/kg)): 850 ng·h/mL
clearance ([3]; iv, injection (1 mg/kg)): 19.6 mL/min/kg
half-life ([3]; iv, injection (1 mg/kg)): 4.69 h
Vd ([3]; iv, injection (1 mg/kg)): 6.15 L/kg
AUC(0-t) ([3]; oral administration (10 mg/kg)): 6120 ng·h/mL
Cmax ([3]; oral administration (10 mg/kg)): 522 ng/mL
Tmax ([3]; oral administration (10 mg/kg)): 4 h
bioavailability ([3]; oral administration (10 mg/kg)): 72%
half-life ([3]; oral administration (10 mg/kg)): 5.26 h
IC50 (PC3 cells [4]): > 2000 nM
IC50 (PC3 cells [5]): 1.46 nM
IC50 (PC3 cells [6]): 0.46 nM
IC50 (FAK recombinant protein): < 20 nM
TGI(%) [7]: 90.83%
TGI(%) [8]: 66.33%

COc1cc(N2CC3(CCN(C)CC3)C2)ccc1Nc1ncc(Cl)c(Oc2cccc3c2C(=O)N(C)C32CC2)n1 [Compound 136, 4′-((5-chloro-2-((2-methoxy-4-(7-methyl-2,7-diazaspiro[3.5]nonan-2-yl)phenyl)amino)pyrimidin-4-yl)oxy)-2′-methylspiro[cyclopropane-1,1′-isoindolin]-3′-one]
TGI(%) [1]: 89.46%
IC50 [2]: 0.22 nM
AUC(0-t) ([3]; iv, injection (1 mg/kg)): 1110 ng·h/mL
clearance ([3]; iv, injection (1 mg/kg)): 15 mL/min/kg
half-life ([3]; iv, injection (1 mg/kg)): 3.31 h
Vd ([3]; iv, injection (1 mg/kg)): 4.15 L/kg
AUC(0-t) ([3]; oral administration (10 mg/kg)): 8910 ng·h/mL
Cmax ([3]; oral administration (10 mg/kg)): 907 ng/mL
Tmax ([3]; oral administration (10 mg/kg)): 2 h
bioavailability ([3]; oral administration (10 mg/kg)): 80.2%
half-life ([3]; oral administration (10 mg/kg)): 2.2 h
IC50 (PC3 cells [4]): > 10000 nM
IC50 (PC3 cells [5]): 1.16 nM
IC50 (PC3 cells [6]): 0.6 nM
IC50 (FAK recombinant protein): < 20 nM
TGI(%) [7]: 76.67%
TGI(%) [8]: 32.53%

COc1cc(N2CC3(CCN(C)CC3)C2)c(F)cc1Nc1ncc(Cl)c(Oc2cccc3c2C(=O)N(C)C32CC2)n1 [Compound 137, 4′-((5-chloro-2-((5-fluoro-2-methoxy-4-(7-methyl-2,7-diazaspiro[3.5]nonan-2-yl)phenyl)amino)pyrimidin-4-yl)oxy)-2′-methylspiro[cyclopropane-1,1′-isoindolin]-3′-one]
TGI(%) [1]: 87.68%
IC50 [2]: 0.08 nM
AUC(0-t) ([3]; iv, injection (1 mg/kg)): 1390 ng·h/mL
clearance ([3]; iv, injection (1 mg/kg)): 12 mL/min/kg
half-life ([3]; iv, injection (1 mg/kg)): 3.67 h
Vd ([3]; iv, injection (1 mg/kg)): 3.71 L/kg
AUC(0-t) ([3]; oral administration (10 mg/kg)): 12400 ng·h/mL
Cmax ([3]; oral administration (10 mg/kg)): 810 ng/mL
Tmax ([3]; oral administration (10 mg/kg)): 4 h
bioavailability ([3]; oral administration (10 mg/kg)): 89.4%
half-life ([3]; oral administration (10 mg/kg)): 4.19 h
IC50 (PC3 cells [4]): > 10000 nM
IC50 (PC3 cells [5]): 1.71 nM
IC50 (PC3 cells [6]): 1.4 nM
IC50 (FAK recombinant protein): < 20 nM
TGI(%) [7]: 76.39%

COc1cc(N2CC3(CCN(C)CC3)C2)c(F)cc1Nc1ncc(Br)c(Oc2cccc3c2C(=O)N(C)C32CC2)n1 [Compound 178]
TGI(%) [1]: 82.41%
IC50 (PC3 cells [4]): > 2000 nM
IC50 (PC3 cells [5]): 6.22 nM
IC50 (PC3 cells [6]): 0.38 nM
IC50 (FAK recombinant protein): < 20 nM
